Source: ChEMBL document CHEMBL1687752, “Impact of antifungal prophylaxis on colonization and azole susceptibility of Candida species” (2009)
≈ marks a conversion by molar mass, not a printed value.

Experiments:
Type in all cases: functional
Pichia kudriavzevii [1] = assay: Antifungal activity against 8 days cultured Candida krusei isolated from neutropenic subject with AML or MDS pharynx after 12 days of prophylaxis by broth microdilution method
Nakaseomyces glabratus [2] = assay: Antifungal activity against 88 days cultured Candida glabrata isolated from HSCT recipient with acute or chronic GVHD mouth receiving antifungal therapy for 75 days after 33 days of prophylaxis by broth microdilution method
Nakaseomyces glabratus [3] = assay: Antifungal activity against 25 days cultured Candida glabrata isolated from invasive fungal infected subject blood receiving antifungal therapy for 25 days after 3 days of prophylaxis by broth microdilution method
Candida tropicalis [4] = assay: Antifungal activity against -3 days cultured Candida tropicalis isolated from neutropenic subject with AML or MDS stool receiving antifungal therapy for 45 days after 24 days of prophylaxis by broth microdilution method
Candida tropicalis [5] = assay: Antifungal activity against 2 days cultured Candida tropicalis isolated from neutropenic subject with AML or MDS stool receiving antifungal therapy for 45 days after 24 days of prophylaxis by broth microdilution method
Candida tropicalis [6] = assay: Antifungal activity against 2 days cultured Candida tropicalis isolated from neutropenic subject with AML or MDS pharynx receiving antifungal therapy for 45 days after 24 days of prophylaxis by broth microdilution method
Candida tropicalis [7] = assay: Antifungal activity against 9 days cultured Candida tropicalis isolated from neutropenic subject with AML or MDS stool receiving antifungal therapy for 45 days after 24 days of prophylaxis by broth microdilution method
Nakaseomyces glabratus [8] = assay: Antifungal activity against 62 days cultured Candida glabrata isolated from HSCT recipient with acute or chronic GVHD mouth receiving antifungal therapy for 143 days after 116 days of prophylaxis by broth microdilution method
Nakaseomyces glabratus [9] = assay: Antifungal activity against 111 days cultured Candida glabrata isolated from HSCT recipient with acute or chronic GVHD mouth receiving antifungal therapy for 143 days after 116 days of prophylaxis by broth microdilution method
Nakaseomyces glabratus [10] = assay: Antifungal activity against 15 days cultured Candida glabrata isolated from HSCT recipient with acute or chronic GVHD mouth receiving antifungal therapy for 168 days after 113 days of prophylaxis by broth microdilution method
Pichia kudriavzevii [11] = assay: Antifungal activity against 6 days cultured Candida krusei isolated from neutropenic subject with AML or MDS stool receiving antifungal therapy for 19 days after 6 days of prophylaxis by broth microdilution method
Pichia kudriavzevii [12] = assay: Antifungal activity against 16 days cultured Candida krusei isolated from neutropenic subject with AML or MDS stool receiving antifungal therapy for 19 days after 6 days of prophylaxis by broth microdilution method
Candida albicans [13] = assay: Antifungal activity against Candida albicans isolated from HSCT recipients with acute or chronic GVHD prior to initiation of posaconazole therapy by broth microdilution method
Candida albicans [14] = assay: Antifungal activity against Candida albicans isolated from HSCT recipients with acute or chronic GVHD prior to initiation of posaconazole therapy assessed as maximum MIC by broth microdilution method
Candida albicans [15] = assay: Antifungal activity against Candida albicans isolated from neutropenic subjects with AML or MDS prior to initiation of posaconazole therapy assessed as maximum MIC by broth microdilution method
Nakaseomyces glabratus [16] = assay: Antifungal activity against Candida glabrata isolated from neutropenic subjects with AML or MDS receiving posaconazole assessed as maximum MIC by broth microdilution method
Candida albicans [17] = assay: Antifungal activity against Candida albicans isolated from HSCT recipients with acute or chronic GVHD prior to initiation of fluconazole therapy by broth microdilution method
Nakaseomyces glabratus [18] = assay: Antifungal activity against Candida glabrata isolated from HSCT recipients with acute or chronic GVHD prior to initiation of fluconazole therapy by broth microdilution method
Nakaseomyces glabratus [19] = assay: Antifungal activity against Candida glabrata isolated from HSCT recipients with acute or chronic GVHD receiving fluconazole assessed as maximum MIC by broth microdilution method
Pichia kudriavzevii [20] = assay: Antifungal activity against Candida krusei isolated from HSCT recipients with acute or chronic GVHD receiving fluconazole assessed as maximum MIC by broth microdilution method
Candida albicans [21] = assay: Antifungal activity against Candida albicans isolated from neutropenic subjects with AML or MDS prior to initiation of fluconazole therapy by broth microdilution method
Candida albicans [22] = assay: Antifungal activity against Candida albicans isolated from neutropenic subjects with AML or MDS receiving fluconazole assessed as maximum MIC by broth microdilution method
Pichia kudriavzevii [23] = assay: Antifungal activity against Candida krusei isolated from neutropenic subjects with AML or MDS prior to initiation of fluconazole therapy assessed as maximum MIC by broth microdilution method
Candida albicans [24] = assay: Antifungal activity against Candida albicans isolated from HSCT recipient 262 with acute or chronic GVHD mouth receiving antifungal drug after 115 days prophylaxis by broth microdilution method
Candida albicans [25] = assay: Antifungal activity against Candida albicans isolated from HSCT recipient 301 with acute or chronic GVHD mouth receiving antifungal drug after 114 days prophylaxis by broth microdilution method
Nakaseomyces glabratus [26] = assay: Antifungal activity against Candida glabrata isolated from neutropenic subject 1491 with AML or MDS pharynx receiving antifungal drug after 23 days prophylaxis by broth microdilution method; conditions: 552 h
Nakaseomyces glabratus [27] = assay: Antifungal activity against Candida glabrata isolated from HSCT recipient 186 with acute or chronic GVHD mouth after 112 days prophylaxis by broth microdilution method
Nakaseomyces glabratus [28] = assay: Antifungal activity against Candida glabrata isolated from HSCT recipient 186 with acute or chronic GVHD mouth receiving antifungal drug after 112 days prophylaxis by broth microdilution method
Nakaseomyces glabratus [29] = assay: Antifungal activity against Candida glabrata isolated from HSCT recipient 270 with acute or chronic GVHD mouth after 108 days prophylaxis by broth microdilution method
Candida albicans [30] = assay: Antifungal activity against Candida albicans isolated from HSCT recipient 031 with acute or chronic GVHD mouth after 109 days prophylaxis by broth microdilution method
Candida albicans [31] = assay: Antifungal activity against Candida albicans isolated from HSCT recipient 462 with acute or chronic GVHD mouth after 112 days prophylaxis by broth microdilution method
Candida albicans [32] = assay: Antifungal activity against Candida albicans isolated from HSCT recipient 462 with acute or chronic GVHD mouth receiving antifungal drug after 112 days prophylaxis by broth microdilution method
Candida albicans [33] = assay: Antifungal activity against Candida albicans isolated from HSCT recipient 042 with acute or chronic GVHD mouth after 112 days prophylaxis by broth microdilution method
Candida albicans [34] = assay: Antifungal activity against Candida albicans isolated from HSCT recipient 042 with acute or chronic GVHD mouth receiving antifungal drug after 112 days prophylaxis by broth microdilution method
Candida albicans [35] = assay: Antifungal activity against Candida albicans isolated from HSCT recipient 928 with acute or chronic GVHD mouth after 112 days prophylaxis by broth microdilution method
Nakaseomyces glabratus [36] = assay: Antifungal activity against Candida glabrata isolated from HSCT recipient 497 with acute or chronic GVHD mouth after 114 days prophylaxis by broth microdilution method
Nakaseomyces glabratus [37] = assay: Antifungal activity against Candida glabrata isolated from HSCT recipient 497 with acute or chronic GVHD mouth receiving antifungal drug after 114 days prophylaxis by broth microdilution method
Nakaseomyces glabratus [38] = assay: Antifungal activity against Candida glabrata isolated from HSCT recipient 807 with acute or chronic GVHD mouth receiving antifungal drug after 114 days prophylaxis by broth microdilution method
Nakaseomyces glabratus [39] = assay: Antifungal activity against Candida glabrata isolated from HSCT recipient 491 with acute or chronic GVHD mouth receiving antifungal drug after 112 days prophylaxis by broth microdilution method

For `OC(Cn1cncn1)(Cn1cncn1)c1ccc(F)cc1F` [FLUCONAZOLE], the MIC (Pichia kudriavzevii [1]) was over 64 µg/mL, the MIC (Nakaseomyces glabratus [2]) was over 64 µg/mL and the MIC (Nakaseomyces glabratus [3]) was 8 µg/mL (≈ 26.1 µM). The MIC (Candida tropicalis [4]) was 0.25 µg/mL (≈ 0.816 µM), the MIC (Candida tropicalis [5]) was 0.25 µg/mL (≈ 0.816 µM) and the MIC (Candida tropicalis [6]) was 0.25 µg/mL (≈ 0.816 µM). The MIC (Candida tropicalis [7]) was 0.5 µg/mL (≈ 1.63 µM), the MIC (Nakaseomyces glabratus [8]) was 64 µg/mL (≈ 209 µM) and the MIC (Nakaseomyces glabratus [9]) was 64 µg/mL (≈ 209 µM). It also gave an MIC (Nakaseomyces glabratus [10]) of 64 µg/mL (≈ 209 µM), an MIC (Pichia kudriavzevii [11]) of 64 µg/mL (≈ 209 µM) and an MIC (Pichia kudriavzevii [12]) of 64 µg/mL (≈ 209 µM). It also gave an MIC50 (Candida albicans [13]) of 0.25 µg/mL (≈ 0.816 µM), an MIC90 (Candida albicans [13]) of 4 µg/mL (≈ 13.1 µM) and an MIC (Candida albicans [14]) of 64 µg/mL. It also gave an MIC (Candida albicans [15]) of 2 µg/mL, an MIC (Nakaseomyces glabratus [16]) of 64 µg/mL and an MIC50 (Candida albicans [17]) of 0.25 µg/mL (≈ 0.816 µM). The MIC90 (Candida albicans [17]) was 1 µg/mL (≈ 3.27 µM), the MIC50 (Nakaseomyces glabratus [18]) was 16 µg/mL (≈ 52.2 µM) and the MIC90 (Nakaseomyces glabratus [18]) was 64 µg/mL (≈ 209 µM). The MIC (Nakaseomyces glabratus [19]) was 64 µg/mL, the MIC (Pichia kudriavzevii [20]) was 64 µg/mL and the MIC50 (Candida albicans [21]) was 0.125 µg/mL (≈ 0.408 µM). The MIC90 (Candida albicans [21]) was 0.25 µg/mL (≈ 0.816 µM), the MIC (Candida albicans [22]) was 64 µg/mL and the MIC (Pichia kudriavzevii [23]) was 32 µg/mL. The MIC (Candida albicans [24]) was 2 µg/mL (≈ 6.53 µM), the MIC (Candida albicans [25]) was 0.25 µg/mL (≈ 0.816 µM) and the MIC (Nakaseomyces glabratus [26]) was over 64 µg/mL. The MIC (Nakaseomyces glabratus [27]) was 8 µg/mL (≈ 26.1 µM), the MIC (Nakaseomyces glabratus [28]) was 32 µg/mL (≈ 104 µM) and the MIC (Nakaseomyces glabratus [29]) was 8 µg/mL (≈ 26.1 µM). The MIC (Candida albicans [30]) was 16 µg/mL (≈ 52.2 µM), the MIC (Candida albicans [31]) was 8 µg/mL (≈ 26.1 µM) and the MIC (Candida albicans [32]) was 8 µg/mL (≈ 26.1 µM). The MIC (Candida albicans [33]) was under 0.125 µg/mL, the MIC (Candida albicans [34]) was 1 µg/mL (≈ 3.27 µM) and the MIC (Candida albicans [35]) was under 0.125 µg/mL. The MIC (Nakaseomyces glabratus [36]) was 16 µg/mL (≈ 52.2 µM), the MIC (Nakaseomyces glabratus [37]) was 32 µg/mL (≈ 104 µM) and the MIC (Nakaseomyces glabratus [38]) was 128 µg/mL (≈ 418 µM). The MIC (Nakaseomyces glabratus [39]) was 32 µg/mL (≈ 104 µM).

In the case of `CCC(C)n1ncn(-c2ccc(N3CCN(c4ccc(OCC5COC(Cn6cncn6)(c6ccc(Cl)cc6Cl)O5)cc4)CC3)cc2)c1=O` (stereo unspecified) [ITRACONAZOLE], the MIC (Pichia kudriavzevii [1]) is reported as 0.25 µg/mL (≈ 0.354 µM), the MIC (Nakaseomyces glabratus [2]) is reported as 2 µg/mL (≈ 2.83 µM) and the MIC (Nakaseomyces glabratus [3]) is reported as 2 µg/mL (≈ 2.83 µM). It also gave an MIC (Candida tropicalis [4]) of 0.03 µg/mL (≈ 0.0425 µM), an MIC (Candida tropicalis [5]) of under 0.015 µg/mL and an MIC (Candida tropicalis [6]) of 0.03 µg/mL (≈ 0.0425 µM). It also gave an MIC (Candida tropicalis [7]) of 0.03 µg/mL (≈ 0.0425 µM), an MIC (Nakaseomyces glabratus [8]) of 8 µg/mL (≈ 11.3 µM) and an MIC (Nakaseomyces glabratus [9]) of over 8 µg/mL. For the same compound, the MIC (Nakaseomyces glabratus [10]) was 4 µg/mL (≈ 5.67 µM), the MIC (Pichia kudriavzevii [11]) was 0.5 µg/mL (≈ 0.709 µM) and the MIC (Pichia kudriavzevii [12]) was 0.25 µg/mL (≈ 0.354 µM). The MIC50 (Candida albicans [13]) was 0.03 µg/mL (≈ 0.0425 µM), the MIC90 (Candida albicans [13]) was 0.06 µg/mL (≈ 0.085 µM) and the MIC (Candida albicans [14]) was 16 µg/mL. It also gave an MIC (Candida albicans [15]) of 0.03 µg/mL, an MIC (Nakaseomyces glabratus [16]) of 8 µg/mL and an MIC50 (Candida albicans [17]) of 0.03 µg/mL (≈ 0.0425 µM). The MIC90 (Candida albicans [17]) was 0.06 µg/mL (≈ 0.085 µM), the MIC50 (Nakaseomyces glabratus [18]) was 2 µg/mL (≈ 2.83 µM) and the MIC90 (Nakaseomyces glabratus [18]) was 16 µg/mL (≈ 22.7 µM). It also gave an MIC (Nakaseomyces glabratus [19]) of 32 µg/mL, an MIC (Pichia kudriavzevii [20]) of 16 µg/mL and an MIC50 (Candida albicans [21]) of 0.015 µg/mL (≈ 0.0213 µM). For the same compound, the MIC90 (Candida albicans [21]) was 0.015 µg/mL (≈ 0.0213 µM), the MIC (Candida albicans [22]) was 8 µg/mL and the MIC (Pichia kudriavzevii [23]) was 0.5 µg/mL. It also gave an MIC (Candida albicans [24]) of 0.06 µg/mL (≈ 0.085 µM), an MIC (Candida albicans [25]) of 0.25 µg/mL (≈ 0.354 µM) and an MIC (Nakaseomyces glabratus [26]) of 8 µg/mL (≈ 11.3 µM). It also gave an MIC (Nakaseomyces glabratus [27]) of 0.5 µg/mL (≈ 0.709 µM), an MIC (Nakaseomyces glabratus [28]) of 2 µg/mL (≈ 2.83 µM) and an MIC (Nakaseomyces glabratus [29]) of 0.125 µg/mL (≈ 0.177 µM). It also gave an MIC (Candida albicans [30]) of 0.03 µg/mL (≈ 0.0425 µM), an MIC (Candida albicans [31]) of 0.06 µg/mL (≈ 0.085 µM) and an MIC (Candida albicans [32]) of 0.03 µg/mL (≈ 0.0425 µM). The MIC (Candida albicans [33]) was under 0.015 µg/mL, the MIC (Candida albicans [34]) was 0.06 µg/mL (≈ 0.085 µM) and the MIC (Candida albicans [35]) was under 0.015 µg/mL. It also gave an MIC (Nakaseomyces glabratus [36]) of 1 µg/mL (≈ 1.42 µM), an MIC (Nakaseomyces glabratus [37]) of 8 µg/mL (≈ 11.3 µM) and an MIC (Nakaseomyces glabratus [38]) of over 8 µg/mL. For the same compound, the MIC (Nakaseomyces glabratus [39]) was 2 µg/mL (≈ 2.83 µM).
